One may read the CC50 as the concentration at which the toxic effect on the cells reaches its halfway point. Low readings indicate greater toxicity to the cells, high ones lower toxicity to the cells.

The text below walks through data of article PMC3525952 (Planta medica, 2008).

For series [1], the system named is rhinovirus 2 (HRV-2). Put plainly: Cytopathic effect. Format: cell-based, human rhinovirus. The settings on record: for antiviral activity against HRV-2 (in words): HeLa cells, non-cytotoxic concentrations; for IC50: read-out: HRV (experimental result, activity class).
The subject of series [2] is HeLa cell monolayers. Kind of series: Cytotoxicity on HeLa cell monolayers. Format: cell-based. The settings on record: HeLa cells; for CC50: 72 h incubation, two independent tests.
For series [3], the target named is AChE EC 3.1.1.7 (Homo sapiens, UniProt P22303). Kind of series: Spectrophotometric AChE inhibition assay. Format: biochemical.
A short description of series [4]: Cytotoxicity on HeLa cell monolayers. Format: cell-based. Conditions: human, confluent HeLa cell monolayers.
The target in series [5] is CB2 receptor (Homo sapiens, UniProt P34972). Kind of series: Radioligand.
Series [6] deals with CB1 receptor (Homo sapiens, UniProt P21554). Put plainly: Radioligand.
The mark [7] stands for this setting: read-out: AChE (experimental result, activity class), Table 5 overview.
The mark [8] stands for this setting: AChE (experimental result, activity class), Table 5 overview.
[9] abbreviates: AChE IC50 ± SD, in vitro, modified Ellman's method, 96-well microplate, n = 4.
Where [10] appears, read: read-out: CB2 (experimental result, activity class), Table 5 overview.
The mark [11] stands for this setting: read-out: hCB2 Ki ± SD, displacement of [3H]CP-55,940, Cheng-Prusoff.
Where [12] appears, read: CB2 (experimental result, activity class), Table 5 overview.
Where [13] appears, read: hCB2 Ki ± SD, displacement of [3H]CP-55,940, Cheng-Prusoff.

≈ marks a conversion by molar mass, not a printed value. Like-named read-outs stand apart in the source and are kept apart here.

CB1 receptor, sequence (P21554 whole entry): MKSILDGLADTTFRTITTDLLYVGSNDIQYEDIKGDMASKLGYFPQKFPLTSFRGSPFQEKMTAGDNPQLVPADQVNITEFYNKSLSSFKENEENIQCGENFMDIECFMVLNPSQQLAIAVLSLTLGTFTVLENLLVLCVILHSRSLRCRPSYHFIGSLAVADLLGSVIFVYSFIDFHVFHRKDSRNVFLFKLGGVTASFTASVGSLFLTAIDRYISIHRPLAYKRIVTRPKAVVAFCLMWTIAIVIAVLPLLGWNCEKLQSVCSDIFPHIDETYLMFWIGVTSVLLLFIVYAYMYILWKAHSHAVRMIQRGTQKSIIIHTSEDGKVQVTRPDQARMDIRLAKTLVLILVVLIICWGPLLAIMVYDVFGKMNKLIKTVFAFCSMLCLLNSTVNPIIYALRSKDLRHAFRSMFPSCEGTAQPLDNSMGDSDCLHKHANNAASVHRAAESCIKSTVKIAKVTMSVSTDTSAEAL
CB2 receptor, sequence (P34972 whole entry): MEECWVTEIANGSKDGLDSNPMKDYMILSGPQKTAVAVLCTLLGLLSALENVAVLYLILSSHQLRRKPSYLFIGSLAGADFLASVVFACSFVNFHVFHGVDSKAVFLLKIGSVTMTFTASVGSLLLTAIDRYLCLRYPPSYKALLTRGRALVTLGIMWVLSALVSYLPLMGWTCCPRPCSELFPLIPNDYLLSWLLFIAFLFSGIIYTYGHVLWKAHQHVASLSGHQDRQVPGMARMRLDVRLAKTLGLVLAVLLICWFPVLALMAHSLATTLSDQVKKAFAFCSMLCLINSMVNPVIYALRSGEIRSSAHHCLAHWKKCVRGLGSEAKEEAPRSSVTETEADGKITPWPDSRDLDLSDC
AChE EC 3.1.1.7, sequence (P22303 32-614): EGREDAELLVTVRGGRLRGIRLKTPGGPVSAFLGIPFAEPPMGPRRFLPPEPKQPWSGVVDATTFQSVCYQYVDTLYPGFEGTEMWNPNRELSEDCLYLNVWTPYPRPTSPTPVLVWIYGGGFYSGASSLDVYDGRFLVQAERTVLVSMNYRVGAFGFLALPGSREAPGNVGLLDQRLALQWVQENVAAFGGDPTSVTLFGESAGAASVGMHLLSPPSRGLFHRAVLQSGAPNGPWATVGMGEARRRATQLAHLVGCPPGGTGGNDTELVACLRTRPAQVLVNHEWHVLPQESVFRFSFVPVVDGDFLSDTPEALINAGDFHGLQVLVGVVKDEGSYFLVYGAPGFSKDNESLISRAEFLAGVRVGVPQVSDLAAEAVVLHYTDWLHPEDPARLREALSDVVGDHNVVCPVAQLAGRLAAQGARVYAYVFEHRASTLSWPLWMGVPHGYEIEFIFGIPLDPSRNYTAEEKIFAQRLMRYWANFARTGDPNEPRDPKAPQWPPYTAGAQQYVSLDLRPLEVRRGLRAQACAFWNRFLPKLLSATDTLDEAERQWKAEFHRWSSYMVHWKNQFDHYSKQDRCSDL

As for `COc1cc2cc(Oc3ccc4ccc(=O)oc4c3)c(=O)oc2cc1OC` [Compound 2, daphnoretin methyl ether], the “antiviral activity against HRV-2 (in words)” value (shortened to “antiviral activity”) in series [1] was “Weak, but significant and dose-dependent antiviral activities”. Also, the figures for the IC50 in series [1] (Table 5 overview) and in series [3] (setting [7]) were 20 to 100 µM and more than 500 µM, respectively. In series [2], this compound registered a CC50 of more than 50 µg/mL.
For `O=c1ccc2cc3ccoc3cc2o1` [Compound 5, psoralen], the IC50 in series [3] (setting [8]) and in series [3] (setting [9]) was more than 500 µM throughout.
As to `COC(=O)CCc1cc2ccoc2c(OC)c1O` [Compound 16, Methyl 3-(6-hydroxy-7-methoxybenzofuran-5-yl)propanoate], the IC50 in series [1] (Enterovirus, HRV2, HeLa) was 20 to 100 µM; in series [3] (setting [9]) it was more than 500 µM; in series [3] (setting [7]), more than 500 µM. In series [1], the “antiviral activity” value was “Weak, but significant and dose-dependent antiviral activities”. In series [4], this compound registered a CC50 at 72 h of more than 50 µg/mL.
Regarding `COc1c2occc2cc2ccc(=O)oc12` [Compound 7, 8-methoxy psoralene], the IC50 in series [3] (setting [8]) and in series [3] (setting [9]) was more than 500 µM each time.
In the case of `COc1cc2ccc(=O)oc2c(OC)c1OC` [Compound 13, 6,7,8-trimethoxycoumarin], the IC50 in series [1] (Enterovirus, HRV2, HeLa) is 10 to 20 µM; in series [3] (setting [8]) it was 200 to 500 µM; in series [3] (setting [9]) it was 396 ± 68.5 µM. For the same compound, in series [1], the “antiviral activity” value is reported as “most active antiviral constituents”. In series [4], this compound yielded a CC50 at 72 h of more than 50 µg/mL. The “AChE inhibiting activity (in words)” value in series [3] is reported as “Modest effects”.
On to `COC(=O)CC(O)c1cc(OC)c(O)c(OC)c1` (centres unmarked) [Compound 14, Methyl 3-hydroxy-3-(4-hydroxy-3,5-dimethoxyphenyl)propanoate], for which the IC50 was more than 100 µM in series [1] (Enterovirus, HRV2, HeLa); more than 500 µM in series [3] (setting [9]); more than 500 µM in series [3] (setting [7]). In addition, the CC50 at 72 h in series [4] was more than 50 µg/mL.
Regarding `Cn1c2c(c(=O)c3ccccc31)CC(O)C(C)(C)O2` (centres unmarked) [Compound 8, S-ribalinine], the “antiviral activity” value in series [1] was “Weak, but significant and dose-dependent antiviral activities”. For the same compound, the IC50 in series [1] (Table 5 overview) is 20 to 100 µM; in series [3] (setting [7]) it was more than 500 µM. The same compound registered a CC50 in series [2] of more than 50 µg/mL. Further, the Ki in series [5] (setting [10]) and in series [5] (setting [11]) was more than 100 µM throughout.
In the case of `COc1c(C[C@@H](O)C(C)(C)O)c(=O)n(C)c2ccccc12` [Compound 10, (−)-edulinine], the Ki in series [5] (setting [10]) and in series [5] (setting [11]) was more than 100 µM throughout. For the same compound, the IC50 in series [3] (setting [7]) is more than 500 µM.
As to `COc1c2ccoc2cc2oc(=O)ccc12` [Compound 6, bergapten], the IC50 in series [3] (setting [8]) and in series [3] (setting [9]) was more than 500 µM in each case.
As to isoplatydesmin [Compound 9], the Ki in series [5] (setting [11]) is more than 100 µM. Besides, the “AChE inhibiting activity (in words)” value in series [3] is “Modest effects”.
With `C=CC(C)(C)c1cc2cc3c(cc2oc1=O)OC(C(C)(C)OC(C)=O)C3` (centres unmarked) [Compound 3, rutamarin], in series [1] (Table 5 overview), the “HRV (experimental result, activity class)” value was “cytotoxic”. For the same compound, in series [4], the CC50 at 72 h amounted to 0.9 µg/mL (≈ 2.53 µM). Also, the “cytotoxicity (in words)” value in series [2] was “pronounced cytotoxicity”. Further, the Ki in series [5] (setting [12]) is less than 10 µM; in series [5] (CB2 Ki, displacement of [3H]CP-55,940), 7.41 µM; in series [5] (setting [13]), 7.4 ± 0.6 µM; in series [6], more than 100 µM. In addition, the “binding affinity to the CB receptors (in words)” value in series [5] (radioligand displacement assay) was “selective affinity to the CB2 receptor”. Besides, the IC50 in series [3] (setting [8]) and in series [3] (setting [9]) was more than 500 µM throughout.
Regarding `O=c1cc(-c2ccc3c(c2)OCO3)[nH]c2ccccc12` [Compound 11, norgraveoline], the IC50 in series [1] (Table 5 overview) was more than 100 µM; in series [3] (setting [7]), 50 to 200 µM. Moreover, the cytotoxic concentration (CC50) in series [2] was determined as 32.2 µg/mL (≈ 121 µM). Besides, the “AChE inhibiting activity (in words)” value in series [3] is reported as “Modest effects”.
In series [4], `COC(=O)C1OC1c1cc(OC)c(O)c(OC)c1` (centres unmarked) [Compound 15, Methyl 3-(4-hydroxy-3,5-dimethoxyphenyl)oxirane-2-carboxylate] showed a CC50 at 72 h of more than 50 µg/mL. Also, the IC50 in series [3] (setting [9]) is more than 500 µM.
As to `Cc1cc(CCCOc2c(C)cc(-c3noc(C(F)(F)F)n3)cc2C)on1` [Pleconaril, reference compound], the midpoint of cytotoxicity in series [4], the CC50 at 72 h, lay at 12.6 µg/mL (≈ 33 µM).
For `CC(C)=CCOc1c2ccoc2cc2oc(=O)ccc12` [Compound 4, isoimperatorine], the IC50 in series [3] (setting [8]) and in series [3] (setting [9]) was more than 500 µM throughout.
Take `COc1ccc2ccc(=O)oc2c1` [Compound 12, 7-methoxycoumarin]: the IC50 in series [3] (setting [8]) and in series [3] (setting [9]) was more than 500 µM throughout.
For `CCCCCc1cc(O)c2c(c1)OC(C)(C)c1ccc(C)cc1-2` [Cannabinol, reference compound], the Ki in series [5] (setting [13]) worked out at 0.12 ± 0.01 µM; in series [6], 0.42 ± 0.13 µM.
Regarding `COc1cc2c(c(O)c1OC)c(=O)c1ccccc1n2C` [Compound 1, arborinine], the IC50 in series [1] (Enterovirus, HRV2, HeLa) was less than 10 µM; in series [3] (setting [8]), less than 50 µM; in series [3] (setting [9]), 34.7 ± 7.1 µM. Also, the “antiviral activity” value in series [1] was “most active antiviral constituents”. Also, the CC50 at 72 h in series [4] was more than 50 µg/mL. Further, the Ki in series [5] (setting [12]), in series [5] (setting [13]) and in series [6] was more than 100 µM in each case. Also, the “AChE inhibiting activity (in words)” value in series [3] was “strongest AChE inhibiting activity”.
